How the values were obtained:
[1] = clinical; details: human, in vivo, iv
From the text: The pharmacokinetics of CCI-779 is being studied in patients with cancer receiving CCI-779 either alone or in combination with other chemotherapeutic agents following intravenous administration. Intravenous dosage schedules previously investigated include a cyclical schedule (daily for 5 days every two weeks) and a once-weekly regimen. […] The following examples evaluated the safety, efficacy, and pharmacokinetic/pharmacodynamic relationship to clinical response of three doses of CCI-779, when administered to patients with advanced, refractory renal cell cancer (RCC).

[2] = human, in vivo
Procedure: (§1) In a randomized, double-blind, multicenter trial, once-weekly intravenous doses of 25-, 75-, or 250-mg of CCI-779 were administered to patients with advanced renal cancer that were either previously treated, or untreated and not appropriate candidates for high dose interlukin-2 therapy. Whole blood for CCI-779 and metabolite concentrations was drawn for population pharmacokinetic analysis, and Bayesian-predicted area under the concentration-time curves for parent drug (AUC), parent plus metabolite (AUCsum), and cumulative AUC and AUCsum were derived.
(§2) For CCI-779 clearance, factors for dose, attenuation of exposure with multiple-dose, and effect of body surface area were included.
(§3) The following examples were based on a randomized, double-blind, multicenter, outpatient phase 2 study of CCI-779 administered by 30 minute intravenous infusion (via an automatic dispensing pump) in patients with advanced RCC. Eligible patients were randomly assigned to treatment in a 1:1:1 ratio to receive 25 mg, 75 mg, or 250 mg of CCI-779 weekly until evidence of disease progression.
(§4) Full pharmacokinetic profiling was planned in a subset of patients, with remaining patients to provide sparse sampling.
(§5) The bioanalytical method for CCI-779 was performed using whole blood in a liquid chromatography/tandem mass spectrometry (LC/MS/MS) procedure with deuterated internal standard.
(§6) In order to characterize the pharmacokinetic profiles of patients providing sparse blood sampling, fully and sparsely sampled patient data were analyzed collectively using a population pharmacokinetic method and the NONMEM application (version 1.0, Revision 5.0 on Windows NT 4.0 computer with Pentium processor, NONMEM Project Group, University of California at San Francisco, Calif.). […] Data were therefore modeled separately and segregated by analyte into two separate data sets with dose, time/duration of administration, and demographic information. […] Construction of the NONMEM infile was performed using SAS (version 8.1) on a Sun Microsystems mainframe computer with Sun OS 5.8. […] In both cases, the model-derived value for AUC for a given patient and analyte were obtained from the quotient of CCI-779 Dose/Clearance (CL), in which CL was obtained from Bayesian estimation and the POSTHOC option of NONMEM.
(§7) During model building, an exponential error model was applied to the kinetic model.

[3] = clinical; details: human, in vivo
Procedure: as §1, §2, §3, §4, §5, §6, §7
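For DE on CL (θ6), parameter estimate in this document: population pharmacokinetic analysis in NONMEM of pooled full and sparse blood sampling from patients, exponential error on kinetic parameters, proportional residual error, bootstrap check over 1,000 resamples.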
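For DE on V3 (θ7), parameter estimate in this document: population pharmacokinetic analysis in NONMEM of pooled full and sparse blood sampling from patients, exponential error on kinetic parameters, proportional residual error, bootstrap check over 1,000 resamples.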
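For Dose effect on CL (θ7), bootstrap sample median in this document: population pharmacokinetic analysis in NONMEM of pooled full and sparse blood sampling from patients, exponential error on kinetic parameters, proportional residual error, bootstrap check over 1,000 resamples.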
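For Dose effect on V3 (θ8), bootstrap sample median in this document: population pharmacokinetic analysis in NONMEM of pooled full and sparse blood sampling from patients, exponential error on kinetic parameters, proportional residual error, bootstrap check over 1,000 resamples.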

Question: Which results are given for `CO[C@H]1C[C@@H]2CC[C@@H](C)[C@@](O)(O2)C(=O)C(=O)N2CCCC[C@H]2C(=O)O[C@H]([C@H](C)C[C@@H]2CC[C@@H](O)[C@H](OC)C2)CC(=O)[C@H](C)/C=C(\C)[C@@H](O)[C@@H](OC)C(=O)[C@H](C)C[C@H](C)/C=C/C=C/C=C/1C` [sirolimus]?
Answer: half-life [1]: 60 to 70 h; DE on CL (θ6), parameter estimate [2]: 0.422; DE on V3 (θ7), parameter estimate [2]: 0.302; Dose effect on CL (θ7), bootstrap sample median [2]: 0.412; Dose effect on V3 (θ8), bootstrap sample median [2]: 0.231; HCT effect on V3 (θ8), parameter estimate [2]: 0.719; Hematocrit effect on V3 (θ9), bootstrap sample median [2]: 0.768; Inter-Patient Variability % on CL [2]: 63.7%; Inter-Patient Variability % on Ka [2]: 34.6%; Inter-Patient Variability % on V2 [2]: 164%; Inter-Patient Variability % on V3 [2]: 22.8%; Intersubject variability on CL (ω^21), bootstrap sample median [2]: 0.545; Intersubject variability on CL (ω^21), final model parameter estimate [2]: 0.406; Intersubject variability on V2 (ω^22), bootstrap sample median [2]: 1.418; Intersubject variability on V2 (ω^22), final model parameter estimate [2]: 2.72; Intersubject variability on V3 (ω^23), final model parameter estimate [2]: 0.052; Intersubject variability on ka (ω^24), bootstrap sample median [2]: 0.316; Intersubject variability on ka (ω^24), final model parameter estimate [2]: 0.120; Ka (θ5), parameter estimate [2]: 0.087 h⁻¹; Proportional error (ε^2), bootstrap sample median [2]: 0.212; Proportional error (ε^2), final model parameter estimate [2]: 0.0543; Q (θ3), bootstrap sample median [2]: 27.5 L/h; V2 (θ2), bootstrap sample median [2]: 8.24 L; V3 (θ4), bootstrap sample median [2]: 11.6 L; V3 (θ4), parameter estimate [2]: 12.9 L; ka (θ5), bootstrap sample median [2]: 0.0616 h⁻¹; Q (θ3), parameter estimate ([2]; iv): 44.1 L/h; V2 (θ2), parameter estimate ([2]; iv): 10.4 L; CL (θ1), parameter estimate ([2]; iv, 250 mg): 2.05 L/h; clearance [3]: 33.2 mL/min

— US7643943B2, “Methods for monitoring drug activities in vivo” (Wyeth LLC, priority 2003, dated 2010)
